Measurements as given in patent US6664260B2, “Heterocyclic ether substituted imidazoquinolines” (3M Innovative Properties Company, priority 2000, dated 2003).

What was measured:
interferon (α) = assay: Cytokine Induction in Human Cells: interferon (α) secreted by PBMCs, ELISA; assay type: cell-based; conditions: PBMC, incubated 18 to 24 hours, lowest concentration found to induce interferon
Description: (§1) An in vitro human blood cell system is used to assess cytokine induction. Activity is based on the measurement of interferon and tumor necrosis factor (α) (IFN and TNF, respectively) secreted into culture media as described by Testerman et. al. In “Cytokine Induction by the Immunomodulators Imiquimod and S-27609”, Journal of Leukocyte Biology, 58, 365-372 (September, 1995).
(§2) Whole blood from healthy human donors is collected by venipuncture into EDTA vacutainer tubes. Peripheral blood mononuclear cells (PBMCs) are separated from whole blood by density gradient centrifugation using Histopaque®-1077. The PBMCs are washed twice with Hank's Balanced Salts Solution and then are suspended at 3-4×10^6 cells/mL in RPMI complete. The PBMC suspension is added to 48 well flat bottom sterile tissue culture plates (Costar, Cambridge, Mass. or Becton Dickinson Labware, Lincoln Park, N.J.) containing an equal volume of RPMI complete media containing test compound.
(§3) The compounds are solubilized in dimethyl sulfoxide (DMSO). The DMSO concentration should not exceed a final concentration of 1% for addition to the culture wells
(§4) The solution of test compound is added at 60 μM to the first well containing RPMI complete and serial 3 fold dilutions are made in the wells. The PBMC suspension is then added to the wells in an equal volume, bringing the test compound concentrations to the desired range (0.12 to 30 μM). The final concentration of PBMC suspension is 1.5-2×10^6 cells/mL. The plates are covered with sterile plastic lids, mixed gently and then incubated for 18 to 24 hours at 37° C. in a 5% carbon dioxide atmosphere.
(§5) Following incubation the plates are centrifuged for 5-10 minutes at 1000 rpm (˜200×g) at 4° C. The cell-free culture supernatant is removed with a sterile polypropylene pipet and transferred to sterile polypropylene tubes. Samples are maintained at −30 to −70° C. until analysis. The samples are analyzed for interferon (α) and for tumor necrosis factor (α) by ELISA.
Interferon (α) concentration is determined by ELISA using a Human Multi-Species kit from PBL Biomedical Laboratories, New Brunswick, N.J. Results are expressed in pg/mL.
(§6) The table below lists the lowest concentration found to induce interferon and the lowest concentration found to induce tumor necrosis factor for each compound.

[1] = test system: tumor necrosis factor (α); assay: Cytokine Induction in Human Cells: tumor necrosis factor (α) secreted by PBMCs, ELISA; assay type: cell-based; set-up: key to Lowest Effective Concentration (μM) Tumor Necrosis Factor: A “*” indicates that no induction was seen at any of the tested concentrations; generally the highest tested concentration was 10 or 30 μM; conditions: incubated 18 to 24 hours, lowest concentration found to induce tumor necrosis factor; for minimal effective concentration: PBMC
Description: as §1, §2, §3, §4, §5
Tumor necrosis factor (α) (TNF)concentration is determined using ELISA kits available from Genzyme, Cambridge, Mass.; R&D Systems, Minneapolis, Minn.; or Pharmingen, San Diego, Calif. Results are expressed in pg/mL.
as §6

Nc1nc2ccccc2c2c1ncn2CCOCC#Cc1cccs1 [Example 30, 1-{2-[(3-thien-2-ylprop-2-ynyl)oxy]ethyl}-1H-imidazo[4,5-c]quinolin-4-amine]
melting point: 148 to 150 °C | minimal effective concentration (interferon (α)): 0.37 µM | minimal effective concentration [1]: 3.33 µM

Cc1nc2c(N)nc3ccccc3c2n1CCOCCCc1cccnc1 [Example 34, 2-Methyl-1-[2-(3-pyridin-3-ylpropoxy)ethyl]-1H-imidazo[4,5-c]quinoline-4-amine]
melting point: 145 to 146 °C | minimal effective concentration (interferon (α)): 0.01 µM | minimal effective concentration [1]: 0.04 µM

Nc1nc2ccccc2c2c1ncn2CCOCCCc1ncccn1 [Example 4, 1-[2-(3-Pyrimidin-2-ylpropoxy)ethyl]-1H-imidazo[4,5-c]quinolin-4-amine]
melting point: 126 to 127 °C | minimal effective concentration (interferon (α)): 3.33 µM | Lowest Effective Concentration (μM) Tumor Necrosis Factor [1]: *

Nc1nc2ccccc2c2c1ncn2CCOCc1cn(CSc2ccccc2)nn1 [Example 11, 1-[2-({1-[(Phenylsulfanyl)methyl]-1H-1,2,3-triazol-4-yl}methoxy)ethyl]-1H-imidazo[4,5-c]quinoline-4-amine]
melting point: 182 to 184 °C | minimal effective concentration (interferon (α)): 1.11 µM | minimal effective concentration [1]: 0.04 µM

Nc1nc2ccccc2c2c1ncn2CCOCc1ccccn1 [Example 14, 1-[2-(Pyridin-2-ylmethoxy)ethyl]-1H-imidazo[4,5-c]quinolin-4-amine]
melting point: 196 to 198 °C | minimal effective concentration (interferon (α)): 0.12 µM | minimal effective concentration [1]: 0.37 µM

Cn1c(COCCn2cnc3c(N)nc4ccccc4c32)cc2ccccc21 [Example 31, 1-{2-[(1-methyl-1H-indol-2-yl)methoxy]ethyl}-1H-imidazo[4,5-c]quinolin-4-amine]
melting point: 243 to 245 °C | minimal effective concentration (interferon (α)): 3.33 µM | minimal effective concentration [1]: 3.33 µM

Nc1nc2ccccc2c2c1ncn2CCOCCCc1cccs1 [Example 32, 1-[2-(3-thien-2-ylpropoxy)ethyl]-1H-imidazo[4,5-c]quinolin-4-amine]
melting point: 130.1 to 131.6 °C | minimal effective concentration (interferon (α)): 0.01 µM | minimal effective concentration [1]: 1.11 µM

Nc1nc2ccccc2c2c1ncn2CCOCCCc1ccccn1 [Example 6, 1-[2-(3-Pyridin-2-ylpropoxy)ethyl]-1H-imidazo[4,5-c]quinolin-4-amine]
melting point: 138 to 140 °C | minimal effective concentration (interferon (α)): 0.12 µM | minimal effective concentration [1]: 1.11 µM

Nc1nc2ccccc2c2c1ncn2CCOCCCc1ccncc1 [Example 5, 1-[2-(3-Pyridin-4-ylpropoxy)ethyl]-1H-imidazo[4,5-c]quinolin-4-amine]
melting point: 160 to 162 °C | minimal effective concentration (interferon (α)): 0.04 µM | minimal effective concentration [1]: 0.37 µM

Nc1nc2ccccc2c2c1ncn2CCOCC#Cc1nccs1 [Example 2, 1-(2-{[3-(1,3-Thiazol-2-yl)-2-propynyl]oxy}ethyl)-1H-imidazo[4,5-c]quinolin-4-amine]
melting point: 157 to 159 °C | minimal effective concentration (interferon (α)): 0.37 µM | minimal effective concentration [1]: 10 µM

Nc1nc2ccccc2c2c1ncn2CCOCc1ccncc1 [Example 15, 1-[2-(Pyridin-4-ylmethoxy)ethyl]-1H-imidazo[4,5-c]quinolin-4-amine]
melting point: 159 to 161 °C | minimal effective concentration (interferon (α)): 1.11 µM | minimal effective concentration [1]: 3.33 µM

Cc1noc(C)c1COCCn1cnc2c(N)nc3ccccc3c21 [Example 16, 1-{2-[(3,5-Dimethylisoxazol-4-yl)methoxy]ethyl}-1H-imidazo[4,5-c]quinolin-4-amine]
melting point: 213 to 215 °C | minimal effective concentration (interferon (α)): 3.33 µM | minimal effective concentration [1]: 10 µM

Nc1nc2ccccc2c2c1ncn2CCOCCCc1nccs1 [Example 7, 1-{2-[3-(1,3-Thiazol-2-yl)propoxy]ethyl}-1H-imidazo[4,5-c]quinolin-4-amine]
melting point: 134 to 135 °C | minimal effective concentration (interferon (α)): 0.37 µM | Lowest Effective Concentration (μM) Tumor Necrosis Factor [1]: *
